Experiments:
[1] = tested on: α-glucosidase (PDB ID: 3A4A); set-up: method as in doi:10.3390/separations9090262, PMID 35335251; details: docking of previous study; cited from earlier work
α-amylase (PDB-ID 1DHK) = tested on: α-amylase (PDB-ID 1DHK); set-up: method as in doi:10.3390/separations9090262, PMID 35335251; details: docking of previous study; cited from earlier work
[2] = tested on: aldose reductase (PDB ID: 1IEI); set-up: method as in doi:10.3390/separations9090262, PMID 35335251; details: docking of previous study; cited from earlier work
[3] = biological target: T1, Porcine pancreatic amylase (Sus scrofa, UniProt P00690); experiment: In vitro α-amylase inhibition assay (starch substrate); format: biochemical; details: mean ± SE; starch 1%
T1 sequence (P00690 16-511): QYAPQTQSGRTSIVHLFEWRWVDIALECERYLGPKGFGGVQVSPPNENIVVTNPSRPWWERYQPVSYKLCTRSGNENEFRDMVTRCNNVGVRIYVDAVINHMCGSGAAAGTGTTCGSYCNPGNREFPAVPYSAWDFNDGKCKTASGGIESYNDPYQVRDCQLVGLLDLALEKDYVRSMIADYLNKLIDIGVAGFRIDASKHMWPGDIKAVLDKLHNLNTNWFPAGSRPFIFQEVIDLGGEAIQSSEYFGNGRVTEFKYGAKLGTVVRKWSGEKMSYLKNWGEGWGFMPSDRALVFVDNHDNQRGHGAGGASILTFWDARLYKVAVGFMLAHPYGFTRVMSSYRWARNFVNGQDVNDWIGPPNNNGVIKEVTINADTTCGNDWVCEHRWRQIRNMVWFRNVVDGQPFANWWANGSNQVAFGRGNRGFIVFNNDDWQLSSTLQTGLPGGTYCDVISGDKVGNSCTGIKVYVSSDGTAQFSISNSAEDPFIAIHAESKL
Method: (§1) Porcine pancreatic amylase, yeast α-glucosidase, and human recombinant aldose reductase were tested for enzyme inhibition using various substrates, such as starch (1%), pNPG (0.5 mM), and DL-glyceraldehyde (5 mM) for each enzyme. By comparing changes in the test sample absorbance levels to control values and computing inhibition percentages using the following formula, the degree of inhibition was ascertained: Inhibition (%) = [A×(control)] − [{A × (sample)}/{A × (control)} × 100].

[4] = biological target: human recombinant aldose reductase (Homo sapiens, UniProt P15121); experiment: In vitro aldose reductase inhibition assay (DL-glyceraldehyde substrate); format: biochemical
Method: as §1

[5] = mean ± SE, DL-glyceraldehyde 5 mM

| SMILES | binding affinity against α-glucosidase [1] | binding affinity against α-amylase (α-amylase (PDB-ID 1DHK)) | binding affinity against aldose reductase [2] | IC50 [3] | IC50 [4, 5] | IC50 ([4]; µg/mL value restated in µM) |
| --- | --- | --- | --- | --- | --- | --- |
| O=C(O)/C=C/c1ccc(O)c(O)c1 [caffeic acid] | -8.2 kcal/mol | -8.1 kcal/mol | -7.4 kcal/mol |  |  |  |
| N#CC(C(=O)Nc1ccc(C(N)=O)cc1)C(=NNC(=O)COc1ccc2ccccc2c1)Nc1ccccc1 (centres unmarked) [Compound 7a, 4-(2-cyano-3-(2-(2-(naphthalen-2-yloxy)acetyl)hydrazineylidene)-3-(phenylamino)propanamido)benzamide] |  |  |  | 43.1 µM | 42.6 µM |  |
| CC(=O)c1ccc(NC(=O)C(C#N)/C(=N/NC(=O)COc2ccc3ccccc3c2)Nc2ccccc2)cc1 (centres unmarked) [Compound 7d, N-(4-acetylphenyl)-2-cyano-3-(2-(2-(naphthalen-2-yloxy)acetyl)hydrazineylidene)-3-(phenylamino)propenamide] |  |  |  | 45.7 µM | 33.6 µM |  |
| CCNC(=NNC(=O)COc1ccc2ccccc2c1)C(C#N)C(=O)Nc1ccc(C(N)=O)cc1 (centres unmarked) [Compound 7c, 4-(2-cyano-3-(ethylamino)-3-(2-(2-(naphthalen-2-yloxy)acetyl)hydrazineylidene)propanamido)benzamide] |  |  |  | 57.1 µM | 50.8 µM |  |
| CCN/C(=N\NC(=O)COc1ccnc2ccccc12)C(C#N)C(=O)Nc1ccc(C(C)=O)cc1 (centres unmarked) [Compound 7g, N-(4-acetylphenyl)-2-cyano-3-(ethylamino)-3-(2-(2-(quinolin-4-yloxy)acetyl) hydrazineylidene)propenamide] |  |  |  | 36.3 µM | 25.7 µM | 25.8 µM |
| CC(=O)c1ccc(NC(=O)C(C#N)/C(=N/NC(=O)COc2ccnc3ccccc23)Nc2ccccc2)cc1 (centres unmarked) [Compound 7e, N-(4-acetylphenyl)-2-cyano-3-(phenylamino)-3-(2-(2-(quinolin-4-yloxy)acetyl) hydrazineylidene)propenamide] |  |  |  | 38.4 µM | 43 µM |  |
| CS/C(Nc1ccccc1)=C(\C#N)C(=O)Nc1ccc(C(N)=O)cc1 [Compound 5a] |  |  |  | 94 µM | 71.3 µM |  |
| CCN/C(=N\NC(=O)COc1ccc2ccccc2c1)C(C#N)C(=O)Nc1ccc(C(C)=O)cc1 (centres unmarked) [Compound 7f, N-(4-acetylphenyl)-2-cyano-3-(ethylamino)-3-(2-(2-(naphthalen-2-yloxy)acetyl) hydrazineylidene)propenamide] |  |  |  | 61.8 µM | 42.8 µM |  |
| N#CC(C(=O)Nc1ccc(C(N)=O)cc1)C(=NNC(=O)COc1ccnc2ccccc12)Nc1ccccc1 (centres unmarked) [Compound 7b, 4-(2-cyano-3-(phenylamino)-3-(2-(2-(quinolin-4-yloxy)acetyl)hydrazineylidene)propanamido)benzamide] |  |  |  | 37.3 µM | 40.6 µM |  |
